Measurements taken from patent publication US20260224692A1, “T CELL-DIRECTED ANTI-AGING AND ANTI-CANCER VACCINES AGAINST COMMENSAL CYTOMEGALOVIRUS” (The General Hospital Corporation, priority 2023, published 2026).

B1: CXCL9: recombinant human CXCL9 chemokine (PeproTech, 300-26), ligand of CXCR3 (protein, UniProt Q07325 23-125, looked up)
C-X-C motif chemokine 9: TPVVRKGRCSCISTNQGTIHLQSLKDLKQFAPSPSCEKIEIIATLKNGVQTCLNPDSADVKELIKKWEKQVSQKKKQKNGKKHQKKKVLKVRKSQRSRQKKTT

Legend:
[1] = tested on: skin CD4+ T cells; experiment: Flow cytometry analysis of perforin and CD107a expression on CD4+ T cells exposed to SCFA; type: cell-based, human; conditions: 5 mM SCFA, 24 h
Procedure: (§1) FIGS. 15A-15B. Butyrate and pentanoate boost CD4 CTL-mediated clearance of senescent cells. (A) The frequency of cleaved caspase-3^+ senescent fibroblasts after co-culture for 6 h with skin T cells, which are preincubated with each 5 mM SCFAs for 2 days, using a skin T cell to fibroblast ratio of 50:1. All data are expressed as the mean±SD. n=3 individuals. (B) The effect of each SCFA (5 mM) treatment on the cytotoxicity of CD4^+ T cells. Flow cytometry analysis of perforin and CD107a expression on CD4^+ T cells exposed to each SCFA for 24 h. n=2 individuals. All data are expressed as the mean±SD.
Cells were washed once with PBS, including 5% newborn calf serum (Thermo Fisher Scientific, 26010074) and 0.01% sodium azide (Sigma-Aldrich, S2002-100G), and stained with antibodies (Tables 3B and 3B) on ice for 30 min followed by secondary antibody if needed (Table 3A). Following the surface marker staining, cells were fixed and permeabilized for intracellular staining using True-Nuclear Transcription Factor Buffer Set (BioLegend, 424401). Permeabilized cells were stained with antibodies (Table 3A) overnight at 4° C. […] Data were analyzed using FlowJo software (BD Life Sciences, Franklin Lakes, NJ). Relative fluorescence intensity was calculated by subtracting the median fluorescence intensity of isotype control from the median fluorescence intensity of stained samples.

[2] = tested on: senescent fibroblasts; experiment: SCFA-mediated CD4+ T cell stimulation assay: T cell-mediated cytotoxicity against senescent fibroblasts; type: cell-based, human; conditions: T cells exposed to 5 mM SCFA for 2 days; 6 h co-culture; T cell to fibroblast ratio 50:1
Procedure: as §1, with “Butyrate and pentanoate boost CD4 CTL-mediated clearance of senescent cells.” left out
T cells were seeded at a density of 2.5×10^5 cells into 60 mm dish, and were added to each 5 mM SCFAs, including butylate (EMD Millipore), pentanoate (Ambeed Inc), or propionate (Sigma-Aldrich) with 20 ng/ml human IL-2 recombinant and 20 ng/ml human IL-15 recombinant for 2 days. Following 2 days of co-incubation, T cells were subsequently added to each senescent fibroblasts-placed wells and were cultured in T cell medium with 20 ng/ml human IL-2 recombinant and 20 ng/ml human IL-15 recombinant in 24 well plate (Ratios of 50:1 T cells-to fibroblasts respectively). Following 6 hr of co-incubation, remaining fibroblasts were stained with vimentin and cleaved caspase-3 to examine the frequency of T cell-mediated cytotoxicity against senescent fibroblasts. […]

[3] = tested on: human skin CD4 CTLs; experiment: Trans-well migration assay; type: cell-based; conditions: recombinant human CXCL9 50 nM (585 ng/mL) in bottom well, 60 min, vs PBS carrier
Source text: FIGS. 6A-6E. CXCL9 promotes the migration of human skin-resident CD4 CTLs. […] The percent cells in each gate are shown on the flow-cytometry plots. Zombie fixable viability dye (Viability) marks dead cells. (B) Representative flow-cytometry plots of CXCR3 expression on CD4^+ and CD8^+ T cells in the human skin. Numbers on the flow-cytometry plots represent the percent cells within each gate. (C) The experimental scheme for trans-well migration assay using the immune cells isolated from the human skin. (D and E) The effect of CXCL9 recombinant protein (585 ng/mL) treatment on the migration of human skin CD4 CTLs (D) and CD8^+ T cells (E). Skin samples from two independent donors were used to isolate skin-resident immune cells (female skin donors). Bar graphs show mean±SD, Mann-Whitney U test.
Skin-isolated cells were seeded at a density of 1.5×10^4 cells/well into the top inserts of the 24-well trans-well plate (Corning, 07-200-149). The pore size is 5 μm. RPMI containing recombinant human CXCL9 (PeproTech, 300-26) or PBS (carrier only) at the concentration of 50 nM was added into the bottom well. Skin-isolated cells were incubated for 60 min. Then, cells were counted and stained as described in the flow cytometry section.

Row | Molecule | expression of perforin+ and CD107a+ on CD4+ T cells (cytotoxicity capacity) [1] | apoptosis (cleaved caspase-3+) in senescent fibroblasts by SCFA-exposed skin T cells [2] | migration of human skin CD4 CTLs [3]
1 | CCCC(=O)O [butyrate] | increase | highly induced apoptosis | 
2 | CCCCC(=O)O [pentanoate] | increase | highly induced apoptosis | 
3 | B1 |  |  | significantly induced the migration of CD4 CTLs
